Values belong to the molecule of their own block, whether it stands above or below them.
Assays:
Fadu tumor cells = assay: Test Example 4 cell killing study (CTG, 6 days); assay type: cell-based; conditions: Homo sapiens, 144 h, 6 days culture
From the text: (§1) The objective of this study is to test the inhibitory activity of the anti-TROP-2 antibody (PD3)-drug conjugate of the present disclosure against the proliferation of different tumor cell lines: Miapaca2 tumor cells (human pancreatic cancer cells, Nanjing Kebai Biotechnology Co., Ltd., Cat #CBP60544), Fadu tumor cells (human squamous cell carcinoma, ATCC, Cat #HTB-43), SK-OV-3 (human ovarian cancer cells, ATCC, Cat #HTB-77), K562 (human chronic granulocytic leukemia cells, ATCC, Cat #CCL-243), HCC827 (human lung cancer cells, ATCC, Cat #CRL-2868) and BXPC3 (human pancreatic cancer cells, ATCC, Cat #CRL-1687). The cells were treated in vitro with the antibody drug conjugate at different concentrations. After 6 days of culture, the proliferation of cells was tested using CTG (CellTiter-Glo® Luminescent Cell Viability Assay, Promega, Cat #G7573) reagents, and the in vitro activity of the antibody drug conjugate was evaluated according to IC50 value.
(§2) 2) Cell plating: on the day of the study, after the cells were digested with Trypsin (0.25% Trypsin-EDTA (1×), Life Technologies, Cat #25200-072), MiaPaCa2, Fadu, SK-OV-3, K562, HCC827 and BXPC3 were suspended in cell suspensions using the corresponding media to a density of 3.7×10^3 cells/mL, and 135 μL of suspension was added into each well of a 96-well plate (coming, Cat #3903) to culture 500 cells per well at 37° C. for 24 h.
(§3) 3) Drug preparation: the mother liquor of the test ADC was first adjusted to have a concentration of 4 μM and was added to the first column of a drug preparation plate (coming, Cat #3599). The plate was diluted 5-fold in gradient from column 2 to column 9, with PBS in column 10. 15 μL of the mother liquor in each well was added to the cell culture plate.
(§4) 4) CTG assay: after being cultured at 37° C. for 6 days, the cell culture plate was removed and balanced to room temperature. 75 μL of CTG was added into each well and reacted at room temperature for 10 min in the dark. The absorption value was read using a microplate reader (BMG labtech, PHERAstar FS).
(§5) Data were processed and analyzed using Graphpad Prism 5.

Miapaca2 tumor cells = assay: Test Example 4 cell killing study (CTG, 6 days); assay type: cell-based; conditions: Homo sapiens, MIA PaCa-2, 144 h, 6 days culture, read-out: IC50 (Miapaca)
From the text: as §1, §2, §3, §4, §5

BXPC3 = assay: Test Example 4 cell killing study (CTG, 6 days); assay type: cell-based; conditions: Homo sapiens, BXPC-3, 144 h, 6 days culture
From the text: as §1, §2, §3, §4, §5

HCC827 = assay: Test Example 4 cell killing study (CTG, 6 days); assay type: cell-based; conditions: Homo sapiens, HCC827, 144 h, 6 days culture
From the text: as §1, §2, §3, §4, §5

SK-OV-3 = assay: Test Example 4 cell killing study (CTG, 6 days); assay type: cell-based; conditions: Homo sapiens, SK-OV-3, 144 h, 6 days culture, read-out: IC50 (SKOV3)
From the text: as §1, §2, §3, §4, §5

K562 = assay: Test Example 4 cell killing study (CTG, 6 days); assay type: cell-based; conditions: Homo sapiens, K562, 144 h, 6 days culture
From the text: as §1, §2, §3, §4, §5

SKBR3 = assay: Test Example 2 in vitro cytotoxic activity screening (CTG); assay type: cell-based
Experimental: (§6) The CTG is used for detecting the ATP content in the experiment, and the survival condition of the tumor cells is reflected.
(§7) A549, SKBR3 and MDA-MB-468 were digested with trypsin, and each was resuspended in culture medium to a cell density of 2.2×10^4 cells/mL, and 135 μL of cell suspension was added to each well in columns 2 to 11 of a 96-well plate, and column 12 was set as blank control. The cells were incubated in an incubator for 24 h at 37° C. with 5% CO2.
(§8) a) Stock solution preparation: the test compound and positive control drug were dissolved in DMSO to give a stock solution at a concentration of 5 mM.
(§9) b) Drug preparation plate 1: stock solution in column 1 was initially diluted 40-fold, and 3-fold gradient dilutions were performed sequentially in column 2 to column 11. Column 12 was filled with DMSO.
(§10) c) Drug preparation plate 2: 196 μL of the corresponding culture medium was added into columns 2 to 11, and 4 μL of culture medium was pipetted from column 3 to column 12 of drug preparation plate 1 to column 2 to column 11 of drug preparation plate
(§11) 15 μL of culture medium was pipetted from the drug preparation plate 2 and added into the plated cells. The cells were continuously incubated in an incubator for 5 h at 37° C. with 5% CO2.
(§12) 2.4) CTG assay (Cell Titer-Glo™, luminescent cell viability assay): the cell plates were removed and balanced to room temperature. 75 μL of CTG was added into each well and reacted at room temperature for 10 min in the dark. The absorption value was read using a microplate reader and IC50 was calculated.

A549 = assay: as above; assay type: cell-based
Experimental: as §6, §7, §8, §9, §10, §11, §12

MDA-MB-468 = assay: as above; assay type: cell-based
Experimental: as §6, §7, §8, §9, §10, §11, §12

[1] = biological target: T1, huTROP-2 on CHO-K1 cells over-expressing huTROP-2 protein (human, UniProt P09758 27-323); assay: activity verification on CHO-K1 cells over-expressing huTROP-2 (method not detailed)
T1 construct: No signal peptide cleavage is stated for this form; also called CHO-K1/hTROP-2
T1 sequence: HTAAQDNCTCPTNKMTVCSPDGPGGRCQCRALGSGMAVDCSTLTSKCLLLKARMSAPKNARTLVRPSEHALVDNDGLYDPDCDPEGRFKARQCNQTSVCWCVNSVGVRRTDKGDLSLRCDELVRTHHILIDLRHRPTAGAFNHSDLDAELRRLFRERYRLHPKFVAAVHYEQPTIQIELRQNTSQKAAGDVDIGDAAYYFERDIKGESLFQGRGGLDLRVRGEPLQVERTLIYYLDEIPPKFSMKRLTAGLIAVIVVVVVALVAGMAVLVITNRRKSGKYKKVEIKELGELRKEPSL

[2] = biological target: T2, huTROP-2 protein (His27-Thr274 Accession #NP_002344.2) (human, UniProt P09758 27-274); assay: activity verification with huTROP-2 protein His27-Thr274 (method not detailed)
T2 sequence: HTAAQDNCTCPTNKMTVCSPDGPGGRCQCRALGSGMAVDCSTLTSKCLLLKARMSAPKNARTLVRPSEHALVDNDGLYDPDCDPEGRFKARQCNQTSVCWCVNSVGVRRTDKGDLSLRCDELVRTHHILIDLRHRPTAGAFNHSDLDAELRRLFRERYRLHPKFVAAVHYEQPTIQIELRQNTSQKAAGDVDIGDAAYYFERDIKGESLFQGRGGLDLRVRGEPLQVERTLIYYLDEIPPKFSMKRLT

human CD79B [3] = biological target: T3, human CD79B (Homo sapiens, UniProt P40259); assay: ELISA of culture supernatant of anti-human CD79B hybridoma positive clones; assay type: binding; conditions: 1 μg/mL coated antigen
T3 construct: the extracellular region (ECD) of which comprises 159 amino acids (Met1-Asp159); human Fc domain (hFc) OR His tag; made in house; host or cells: 293F cells
T3 sequence (P40259 29-159 limits assumed): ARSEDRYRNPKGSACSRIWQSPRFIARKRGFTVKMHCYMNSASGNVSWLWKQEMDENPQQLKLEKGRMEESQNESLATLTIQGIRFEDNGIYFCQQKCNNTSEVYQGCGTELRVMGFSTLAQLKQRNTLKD
Experimental: (§13) 3) ELISA screening: the 96-well plates were correspondingly labeled before experiment, and coated with 1 μg/mL antigen at 50 μL per well in a refrigerator at 4° C. overnight. The next day, the coated antigen plates from the previous day were removed and washed once with a plate washer (cleaning solution: 1×PBST). After washing, the plates were blocked with 1% BSA blocking solution prepared in 1×PBST at 37° C. for 1 h. After being washed with 1×PBST cleaning solution for 3 times, the plates were added with 50 μL cell supernatant to be detected, and incubated in a 37° C. incubator for 1 h. After the plates were washed with 1×PBST cleaning solution for 3 times, added with 100 μL of goat anti-mouse secondary antibody diluted at 1:5000, and incubated in an incubator at 37° C. for 0.5 h. The plates were washed, the TMB color developing solution A solution and B solution in a ratio of 1:1 was taken for to color development. The color development reaction was terminated with 1 N hydrochloric acid for 15 min. Fluorescence value was read at 450 nm on a Spectra Max M5 multi-functional plate reader.
5) Hybridoma positive clone identification: after fusion and subclone screening of mouse splenocytes, multiple specific antibodies against human CD79B antigen were obtained, and the antibodies from the 17 strains of hybridomas having the highest binding to ELISA and FACS were produced and purified. […]

human CD79B [4] = biological target: T3, human CD79B; assay: ELISA assay on purified anti-human CD79B mouse monoclonal antibodies; assay type: binding
Experimental: as §13, with “2)” for “3)”, “assay on anti-human CD79B mouse monoclonal antibodies:” for “screening:”, “of diluted antibody at 1:10 at 100 nM,” for “cell supernatant to be detected,”

human CD79B [5] = biological target: T4, human CD79B (Homo sapiens, UniProt P40259); assay: FACS assay on purified anti-human CD79B mouse monoclonal antibodies (DOHH2 cells); assay type: binding
T4 construct: endogenous in cells; host or cells: DOHH2
T4 sequence (P40259 29-229): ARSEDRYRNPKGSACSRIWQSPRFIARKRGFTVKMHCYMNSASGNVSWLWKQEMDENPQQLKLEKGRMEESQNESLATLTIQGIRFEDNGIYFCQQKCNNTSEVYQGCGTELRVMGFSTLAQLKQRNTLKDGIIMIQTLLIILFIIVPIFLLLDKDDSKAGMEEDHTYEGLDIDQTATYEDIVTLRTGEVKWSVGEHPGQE
T4 sequence (P11912 33-226 partner): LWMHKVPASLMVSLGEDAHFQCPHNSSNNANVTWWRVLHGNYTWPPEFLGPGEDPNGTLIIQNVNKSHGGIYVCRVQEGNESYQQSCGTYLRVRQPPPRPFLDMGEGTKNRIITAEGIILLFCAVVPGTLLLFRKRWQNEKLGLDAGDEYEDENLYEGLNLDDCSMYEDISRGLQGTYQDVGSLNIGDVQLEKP
Experimental: (§14) 3) FACS assay on anti-human CD79B mouse monoclonal antibodies: after centrifugation, the cell suspension of DOHH2 was resuspended in PBS containing 0.1% BSA, counted, added with 100 μL of antibody diluted 1:10 at 100 nM and incubated at room temperature for 1 h. The cells were washed three times, then added with Anti-Mouse IgG (Fc specific)-FITC secondary antibody, and incubated at room temperature for 30 min in the dark. The cells were washed three times, gently resuspended in PBS containing 0.1% BSA, and then assayed using the machine.

human CD79B [6] = biological target: T4, human CD79B; assay: FACS of culture supernatant of anti-human CD79B hybridoma positive clones on DOHH2 cells; assay type: binding
Experimental: as §14, with “4)” for “3)”, “screening:” for “assay on anti-human CD79B mouse monoclonal antibodies:”, “the test cell supernatant” for “100 μL of antibody diluted 1:10 at 100 nM”, “60 min.” for “1 h.”
5) Hybridoma positive clone identification: after fusion and subclone screening of mouse splenocytes, multiple specific antibodies against human CD79B antigen were obtained, and the antibodies from the 17 strains of hybridomas having the highest binding to ELISA and FACS were produced and purified. Meanwhile, specific antibodies against monkey CD79B antigen were obtained, and the 4 strains of hybridomas having the highest binding to ELISA and FACS were taken for production and purification of antibodies. mIgG was used as negative control in the both assays.

Molecule: C=C1C[C@@H]2CC[C@@]34C[C@H]5O[C@H]6[C@@H](O3)[C@H]3O[C@H](CC[C@@H]3O[C@H]6[C@H]5O4)CC(=O)C[C@@H]3[C@@H](OC)[C@@H](C[C@H](O)CO)O[C@H]3C[C@H]3O[C@@H](CC[C@@H]1O2)C[C@@H](C)C3=C [Compound E1-30, reference compound]
IC50 (Fadu tumor cells): 0.32 nM
IC50 (Miapaca2 tumor cells): 0.45 nM
IC50 (BXPC3): 0.23 nM
IC50 (HCC827): 0.31 nM
IC50 (SK-OV-3): 0.17 nM
IC50 (K562): 0.39 nM
IC50 (SKBR3; Homo sapiens, SK-BR-3, 5 h): 0.166 nM
Maximum inhibition (SKBR3; SKBR3, CTG, incubated 5 h): 96.15%
Maximum inhibition (A549; A549, CTG, incubated 5 h): 62.46%
IC50 (A549; Homo sapiens, A549, 5 h): 0.781 nM
IC50 (MDA-MB-468; Homo sapiens, MDA-MB-468, 5 h): 0.36 nM
Maximum inhibition (MDA-MB-468; MDA-MB-468, CTG, incubated 5 h): 90.49%

binding result [1]: binds
binding result [2]: binds
B1: anti-TROP-2 antibody PD3 (antibody, human IgG1, kappa, V domains shown)
VH: EVQLVQSGSELKKPGASVKVSCKASGYTFTNYGMNWVKQAPGQGLKWMGWINTYTGEPTYTQDFKGRFAFSLDTSVSTAYLQISSLKAEDTAVYYCARGGFGSSYWYFDVWGQGTLVTVSS
VL: DIQLTQSPSSLSASVGDRVSITCKASQDVSIAVAWYQQKPGKAPKLLIYSASYRYTGVPDRFSGSGSGTDFTLTISSLQPEDFAVYYCQQHYITPLTFGAGTKVEIKR
notes: also called anti-human TROP-2 monoclonal antibody

Results (OD450) (human CD79B [3]): 3.80
ELISA binding capacity (human CD79B [4]): highest ELISA binding capacity
FACS binding capacity (human CD79B [5]): highest FACS binding capacity
Mean fluorescence value (human CD79B [6]): 8132
B2: mAb017: anti-human CD79B mouse monoclonal antibody, VH SEQ ID NO: 5, VL SEQ ID NO: 6 (antibody, V domains shown)
VH: QVQLQQSGAELARPGASVKLSCKASGYTFTTYGINWVKQRTGQGLEWIGEIYPRSGNIYYNEKFKGKATLTADKSSSTAYMELRSLTSEDSAVYFCARGSDYDGDFAYWGQGTLVTVSA
VL: DVLMTQTPLSLPVSLGDQASISCRSSQSIVHHDGNTYLEWYLQKPGQSPKLLIYKVSNRFSGVPDRFSGSGSGTDFTLKISRVEAEDLGVYYCFQGSHVPWTFGGGTQLEIK

From patent US20230144203A1 (SHANGHAI SENHUI MEDICINE CO., LTD., priority 2020, published 2023)
